Measured values as given in article PMC9937529, “Mechanism of activation and biased signaling in complement receptor C5aR1” (Cell Research, 2023).
Square brackets hold non-standard residues; d marks the D form. Peptide text beside a SMILES is read from it. Nva = CCC[C@H](N)C(=O)O

Assays:
[1] = tested on: C5aR1; assay: Bias calculation, Gi protein signaling vs β-arrestin 2 recruitment; type: cell-based, human; conditions: from curve fit parameters, endogenous agonist C5a as reference; β value > 0 Gi protein-biased, < 0 β-arrestin-biased
Experimental: The measurement of cAMP inhibition and β-arrestin recruitment in our study was performed as described. Besides, the parameters used below were based on the curve fits of the combined datasets described above.

[2] = tested on: C5aR1; assay: Biased antagonism in competition with C5a (Gi-protein signaling vs β-arrestin 2 recruitment); type: cell-based, human; conditions: HEK293
Experimental: To measure cAMP inhibition effects on the forskolin-induced cAMP accumulation of C5aR1, the GloSensor cAMP assay (Promega) was performed as described in the previous study.[59] Briefly, Flag-tagged wild-type human C5aR1 was co-expressed with GloSensor plasmid in HEK293 cells in 6-well culture plates. After at least 24 h, transfected cells were harvested and suspended in assay buffer Hank’s Balanced Salt Solution (HBSS) containing 10 mM HEPES, pH 7.4, with an additional 3% v/v dilution of the D-Luciferin-Potassium Salt (YEASEN, 40902ES01). […] Finally, the luminescence signals were counted on the Synergy H1 microplate reader (BioTek). […]
The C5a-mediated β-arrestin 2 recruitment to C5aR1 and C5aR2, respectively, was measured using BRET-based assay as previously described.[36],[61],[62] […] The baseline BRET light emissions (460–485 nm and 520–545 nm) were monitored by the Synergy H1 microplate reader (BioTek). After the incubation of different diluted concentrations of agonist with or without antagonist for 10 min, the second BRET light emissions were measured and the ligand-induced BRET ratio was calculated by subtracting the acceptor (mVenus, 520–545 nm) over donor (Nluc, 460–485 nm) emission ratio of the vehicle-treated wells from that of the ligand-treated wells. […]

[3] = biological target: T1, C5aR1 wild type (Homo sapiens, UniProt P21730); assay: BRET-based Gαi1–γ2 dissociation assay (G protein signaling); type: cell-based; conditions: HEK293, Gi protein dissociation assay (Fig. S10a), ligand 10 min, mean±SEM, n=3
T1 construct: expressed in transfected cells; host or cells: HEK293
T1 sequence (P21730 1-350): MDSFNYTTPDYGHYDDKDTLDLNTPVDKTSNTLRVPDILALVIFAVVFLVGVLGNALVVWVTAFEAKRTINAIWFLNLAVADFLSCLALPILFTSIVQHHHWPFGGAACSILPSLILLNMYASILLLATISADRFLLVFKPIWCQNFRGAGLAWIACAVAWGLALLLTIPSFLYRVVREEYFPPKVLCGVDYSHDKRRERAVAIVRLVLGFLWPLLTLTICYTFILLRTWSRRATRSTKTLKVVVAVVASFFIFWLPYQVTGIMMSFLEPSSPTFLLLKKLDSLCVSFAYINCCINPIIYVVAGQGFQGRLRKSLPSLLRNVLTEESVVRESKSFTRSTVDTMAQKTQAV
Experimental: The activation of C5aR1 induced by ligands was measured through BRET-based Gαi1 dissociation from Gβ1γ2 as previously described.[60] HEK293 cells were plated in 6-well plates containing 600,000–800,000 cells per well and cultured 24 h at 37 °C in cell incubator. […] After transfection for 24 h, cells were harvested and dispensed into 96-well white plates and allowed to culture overnight. […] Next, prepared ligands were added into cells for 10 min and the second BRET signal was measured. […] Data were analyzed using a simulation dose-response in GraphPad Prism 7.

[4] = biological target: T2, C5aR1-WT (Homo sapiens, UniProt P21730); assay: BRET assay measuring β-arrestin 2 recruitment; type: cell-based; conditions: C5aR1 wild type, HEK293, BRET, mean±SEM, n=3, Table S5, read-out: EC50, β-arrestin2 recruitment
T2 construct: expressed in transfected cells; host or cells: HEK293
T2 sequence (P21730 1-350): T1 sequence (P21730 1-350)
Experimental: Briefly, HEK293 cells were transiently transfected with C5aR1-Nluc and mVenus-β-arrestin 2 or C5aR2-mVenus and Nluc-β-arrestin 2 constructs using PEI transfection reagent (YEASEN, 40816ES02) according to the manufacturer’s instruction. At 24 h post transfection, the cells were gently detached and seeded (100,000/well) onto 96-well white plates in DMEM containing 5% FBS. On the next day, cells were washed once with Phosphate Buffered Saline (PBS) and incubated in HBSS containing 20 mM HEPES, pH 7.4, with coelenterazine h (5 μM, YEASEN, 40906ES02) for 1 h (37 °C, 5% CO2). […] We carried out the nonlinear regression (curve fit) dose-response function in GraphPad Prism 7 to yield the values of Emax and EC50.

Row | Compound | Signaling bias (bias factor, in words) [1] | Biased antagonism (in words) [2] | EC50 [3] | EC50 [4]
1 | CCC[C@H](NC(=O)[C@H](C)NC(=O)[C@H](CC(C)C)NC(=O)[C@@H]1CCCN1C(=O)[C@H](CCCCN)NC(=O)[C@H](Cc1ccccc1)NC(C)=O)C(=O)N[C@H](C)C(=O)N[C@@H](CCCNC(=N)N)C(=O)O [BM213P6-Nva] (Ac-FKPLA[Nva][dA]R-OH) | increased β-arrestin-biased features compared to BM213 |  |  | 
2 | Cc1ccc(NC(=O)[C@H]2CCCN(C(=O)c3c(C)cccc3F)[C@H]2c2ccc(NC3CCCC3)cc2)cc1C(F)(F)F [avacopan] |  | biased inhibition toward β-arrestin recruitment over G protein coupling |  | 
3 | CC(=O)N[C@@H](Cc1ccccc1)C(=O)N[C@@H](CCCCN)C(=O)N1CCC[C@H]1C(=O)N[C@@H](CC(C)C)C(=O)N[C@@H](C)C(=O)N[C@@H](CC(C)C)C(=O)N[C@H](C)C(=O)N[C@@H](CCCNC(=N)N)C(=O)O [BM213P6-L] (Ac-FKPLAL[dA]R-OH; C-terminus assumed) | increased β-arrestin-biased features compared to BM213 |  |  | 
4 | PMX53 |  | the opposite |  | 
5 | CC(=O)N[C@@H](Cc1ccccc1)C(=O)N[C@@H](CCCCN)C(=O)N1CCC[C@H]1C(=O)N[C@@H](CC(C)C)C(=O)N[C@@H](C)C(=O)N[C@H](C(=O)N[C@H](C)C(=O)N[C@@H](CCCNC(=N)N)C(=O)O)C(C)C [BM213P6-V] (Ac-FKPLAV[dA]R-OH) |  |  | 35.5 ± 4.23 nM | 2590 ± 110 nM
6 | CC(=O)N[C@@H](Cc1ccccc1)C(=O)N[C@@H](CCCCN)C(=O)N1CCC[C@H]1C(=O)N[C@@H](CC(C)C)C(=O)N[C@@H](C)C(=O)N[C@@H](Cc1ccccc1)C(=O)N[C@H](C)C(=O)N[C@@H](CCCNC(=N)N)C(=O)O [BM213P6-F] (Ac-FKPLAF[dA]R-OH) |  |  | 455 ± 34.9 nM | 155000 ± 59000 nM
